How the values were obtained:
[1] = tested on: SH-SY5Y neuroblastoma cells; assay: Neuroprotection / cell viability of neuroblastoma cells treated with MPP (CCK-8); assay type: cell-based, human; details: for protection compared to YCFA-MPP+ treated sample: RA-differentiated SHSY-5Y cells treated with MPP+
Procedure: Once grown the SH-SY5Y neuroblastoma cells were plated on 96-well plate at 11,000 cells/well and incubated for 2 days. The cells were then transferred to differentiation medium (which contains FBS at 1%) and 10 uM retinoic acid (Sigma Aldrich, cat. n. R2625-100MG). Differentiation medium was replaced every other day and cells were harvested at 7 day of differentiation. Cells were pre-treated with or without MPP (Sigma Aldrich, cat. n. D048-1G) for 8 hours. Subsequently, cells were treated with 10% bacterial supernatant and incubated overnight. Cell viability was measured by using CCK-8 reagent (Sigma Aldrich, Cell Counting Kit-8, cat. n. 96992-3000TESTS-F) and read at 450 nm wavelength.

mouse Splenocytes = assay: Spleen cytokine assay ex vivo (LPS or ConA stimulation); assay type: in vivo
Procedure: Spleens were collected immediately in 5 mL RPMI media following sacrifice and cultured immediately. Spleen cells were first homogenised in this RPMI media, followed by 5 mins incubation with 1 ml of RBC lysis buffer (11814389001 ROCHE, Sigma). A further 10 ml of RPMI media was added, followed by 200G centrifugation for 5 mins. The supernatant was then filtered through 40 um strainer. Cells were counted and seeded (4,000,000/mL media). After 2.5 h of adaptation, cells were stimulated with lipopolysaccharide (LPS-2 μg/ml) or concanavalin A (ConA-2.5 μg/ml) for 24 h. Following stimulation, the supernatants were harvested to assess the cytokine release using Proinflammatory Panel 1 (mouse) V-PLEX Kit (Meso Scale Discovery, Maryland, USA) for TNFα, IL-10, IL-1β, Interferon γ, CXCL2 and IL6. The analyses were performed using MESO QuickPlex SQ 120, SECTOR Imager 2400, SECTOR Imager 6000, SECTOR S 600.
The ex-vivo splenocyte assay involves challenging the splenocytes (cells isolated from the spleen—a main organ involved in immune defense), with a bacterio- or viral-mimetic challenge.

[2] = tested on: HT29-mtx epithelial, mucin-producing cell monolayers; assay: IL-8 secretion of HT29-mtx monolayers; assay type: cell-based; details: bacterial supernatants 24 h; compared to untreated and YCFA-treated cells
Excerpt: HT29-mtx epithelial, mucin-producing cell monolayers were used as an in vitro model to evaluate gut barrier disruption and immune stimulation following treatment with MRx0005 and MRx0029.

[3] = tested on: HT29-mtx epithelial, mucin-producing cell monolayers; assay: mRNA expression of tight junction proteins in HT29-mtx (qRT-PCR); assay type: cell-based
Procedure: Total RNA was extracted using the RNeasy mini kit (Qiagen, Manchester, JUK) according to the manufacturer's instructions, and the RNA concentration determined by absorbance at 260/280 nm using a spectrophotometer (nano-Drop ND-1000; Thermo Scientific, Wilmington, Del.). For mRNA expression analysis, cDNA was prepared from total RNA using the High-Capacity cDNA reverse transcription kit (Applied Biosystems, UK) according to the manufacturer's instructions. The reverse transcription reactions were performed in a Thermo cycler (Biometra, Germany) at 25° C. for 10 min, 37° C. for 120 min, and 85° C. for 5 min, hold on at 4° C. Resulting cDNA was amplified in duplicates by the SYBR-Green PCR assay, and products were detected on QuantStudio 6 flex real-time PCR machine (Applied Biosystems, UK) using a standardised profile (initial denaturation of 95° C. for 10 minutes, followed by 40 cycles of 15 seconds of denaturation at 95° C. and 60 seconds of annealing/extension at 60/65° C., depending on the primers. A dissociation stage was added after the 40 cycles to generate a melting curve. Analysis was performed using the Applied Biosystems QuantStudio Real-Time PCR Software v1.2. The primer sequences for Actin, Villin, Occludin TJP1 and TJP2 are provided in the sequence listing.

BALBc mice [4] = assay: Monoamine analysis in brainstem of mice fed with bacteria (HPLC); assay type: in vivo, mouse; details: 1×10^9 CFU oral gavage 6 days
Procedure: Neurotransmitter concentration was analysed by HPLC on samples from the brainstem. Briefly, brainstem tissue was sonicated in 500 μl of chilled mobile phase spiked with 4 ng/40 μl of N-Methyl 5-HT (Sigma Chemical Co., UK) as internal standard. The mobile phase contained 0.1 M citric acid, 5.6 mM octane-1-sulphonic acid (Sigma), 0.1 M sodium dihydrogen phosphate, 0.01 mM EDTA (Alkem/Reagecon, Cork) and 9% (v/v) methanol (Alkem/Reagecon) and was adjusted to pH 2.8 using 4 N sodium hydroxide (Alkem/Reagecon). Homogenates were then centrifuged for 15 min at 22,000×g at 4° C. and 40 μl of the supernatant injected onto the HPLC system which consisted of a SCL 10-Avp system controller, LECD 6A electrochemical detector (Shimadzu), a LC-10AS pump, a CTO-10A oven, a SIL-10A autoinjector (with sample cooler maintained at 40 C) and an online Gastorr Degasser (ISS, UK). A reverse-phase column (Kinetex 2.6 u C18 100×4.6 mm, Phenomenex) maintained at 30° C. was employed in the separation (Flow rate 0.9 ml/min). The glassy carbon working electrode combined with an Ag/AgCl reference electrode (Shimdazu) operated a +0.8 V and the chromatograms generated were analyzed using Class-VP 5 software (Shimadzu). The neurotransmitters were identified by their characteristic retention times as determined by standard injections, which run at regular intervals during the sample analysis. The ratios of peak heights of analyte versus internal standard were measured and compared with standard injection. Results were expressed as ng of neurotransmitter per g fresh weight of tissue.

BALBc mice [5] = assay: Gene expression in hippocampus, amygdala and prefrontal cortex (qPCR); assay type: in vivo, mouse
Procedure: Animals were allowed to habituate to their holding room for one week after arrival into the animal unit. They receive oral gavage (200 μL dose) of live biotherapeutics at a dose of 1×10^9 CFU for 6 consecutive days between 15:00 and 17:00. On day 7, the animals are decapitated, and tissues are harvested for experimentation.
(§1) Total RNA was extracted using the mirVana™ miRNA Isolation kit (Ambion/Llife technologies, Paisley, UK) and DNase treated (Turbo DNA-free, Ambion/life technologies) according to the manufacturers recommendations. RNA was quantified using NanoDrop™ spectrophotometer (Thermo Fisher Scientific Inc., Wilmington, Del., USA) according to the manufacturer's instructions. RNA quality was assessed using the Agilent Bioanalyzer (Agilent, Stockport, UK) according to the manufacturer's procedure and an RNA integrity number (RIN) was calculated. RNA with RIN value >7 was used for subsequent experiments. RNA was reverse transcribed to cDNA using the Applied Biosystems High Capacity cDNA kit (Applied Biosystems, Warrington, UK) according to manufacturer's instructions. Briefly, Multiscribe Reverse Transcriptase (50 U/μL) (1)(2)(1)(10) was added as part of RT master mix, incubated for 25° C. for 10 min, 37° C. for 2 h, 85° C. for 5 min and stored at 4° C. Quantitative PCR was carried out using probes (6 carboxy fluorescein-FAM) designed by Applied Biosystems to mouse specific targeted genes, while using β-actin as an endogenous control. Amplification reactions contained 1 μl cDNA, 5 μl of the 2× PCR Master mix (Roche), 900 nM of each primer and were brought to a total of 10 μl by the addition of RNase-free water. All reactions were performed in triplicate using 96-well plates on the LightCycler®480 System. Thermal cycling conditions were as recommended by the manufacturer (Roche) for 55 cycles. To check for amplicon contamination, each run contained no template controls in triplicate for each probe used. Cycle threshold (Ct) values were recorded. Data was normalized using β-actin and transformed using the 2-ΔΔCT method and presented as a fold change vs. control group.
Expression of genes for neurotransmitter receptors [serotonin receptor 1a(5-HTR1a), dopamine D1 receptor, GABA receptor subunit B1, GABAA receptor, NMDA2A (Grin2A) and NMDA2B (Grin2b) receptor], inflammatory markers [IL-1β, IL6, CD11b, TNFα and TLR4], and endocrine markers [corticosterone releasing factor (CRF), corticosterone releasing factor receptors 1 and 2 (CRFR1, CRFR2), brain-derived neurotrophin factor (BDNF), vasopressin receptor, oxytocin receptor, glucocorticoid receptor and mineralocorticoid receptor] were analysed in brain tissue from the hippocampus, amygdala and prefrontal cortex.

BALBc mice [6] = assay: Ex vivo gene expression in colon and ileum of mice fed with bacteria; set-up: species or system mouse
Procedure: as §1, with “Animals were allowed to habituate to their holding room for one week after arrival into the animal unit. They receive oral gavage (200 μL dose) of live biotherapeutics at a dose of 1×10^9 CFU for 6 consecutive days between 15:00 and 17:00. On day 7, the animals are decapitated, and tissues are harvested for experimentation. The in vitro results were compared with data from the ex vivo parallel analysis on the gut of mice fed with […] expression of TJP2 and occludin was quantified in the colon and ileum. […] Total” for “Total”, “mirVanaTM” for “mirVana™”, “NanoDropTM” for “NanoDrop™”, “RNA with RIN value >7 was used for subsequent experiments.” left out

SHSY5Y = assay: Neurite outgrowth: microscopy and MAP2 gene expression (qPCR); assay type: cell-based, human; details: for neurite outgrowth / neuron-like phenotype: undifferentiated SHSY-5Y cells, 10% bacteria supernatant, 200 uM hexanoic acid or 200 uM valproic acid, 17 hrs
Procedure: SHSY5Y were plated in 10 cm petri dishes a density of 2×10^6 cells. After 24 h cells were treated in differentiation medium (growth medium containing 1% FBS without RA) with 10% bacteria supernatants or YCFA+, 10 uM RA, 200 uM hexanoic acid or 200 uM valproic acid, for 17 hrs. There after representative images were taken using phase contrast EVOS XL core microscope at 40×/0.65 magnification. Cells were collected, and total RNA was isolated according to RNeasy mini kit protocol (Qiagen). cDNAs were made using the high capacity cDNA reverse transcription kit (Applied Biosystems). Gene expression was measured using qPCR. GAPDH was used as internal control. Fold change was calculated according to the 2^(−ΔΔct) method.
Cells were seeded onto 8 well chamber slides (Marienfeld Laboratory Glassware) at 5×10^4 cells/well overnight and were treated with 10% bacterial supernatant for 24 hrs. For differentiation, cells were treated with 10 nM Retinoic acid for 5 days before treating with bacterial supernatant. Cells were then fixed with 4% paraformaldehyde in PBS for 20 minutes at room temperature (RT). Fixed cells were washed with PBS, and permeabilized with 1% Triton X-100 in PBS for 10 minutes. After washing with PBS, the slides were incubated with blocking buffer (4% BSA/PBS) for 1 hr at RT before adding anti-MAP2 antibody (sc-74421, Santa Cruz Biotechnology Inc) diluted in 1% BSA/PBS for 12 hr at 4° C. They were then washed twice with PBS, followed by incubation with Alexa Flour 488 conjugated anti-mouse (Molecular Probes Inc) and Alexa Flour 594 conjugated Phalloidin (ab 176757, Abcam) for 1 hr at RT. After washing 3× with PBS, the slides were mounted with Vectorshield[…] containing DAPI (Sigma, Aldrich). Slides were viewed using a Zeiss Axioscope microscope equipped with a 63×/1.2 W Korr objective and filter sets suitable for detection of the fluorochromes used. Manual exposure times for the digital acquisition of images immuno-labelled with MAP-2 were kept constant allowing comparison between different wells and treatments. Phalloidin (F-actin) and DAPI exposure times varied to suit the field of view. Randomised fields of view were acquired using a QImaging camera controlled by Image Pro Plus software. Images were saved as TIFs and opened in Adobe Photoshop CC 2015.1.2 and overlays of the MAP-2, DAPI and Phalloidion images overlaid and merged. Representative images were selected to illustrate the differences in abundance and location of the proteins examined

HDAC = HDAC inhibition on whole HT-29 cells and HT-29 cell lysate; assay type: cell-based; details: for total HDAC activity, pure substances: HT-29, whole cells or lysate not told apart in the sentence
Procedure: Bacterial culture and cell-free supernatant collection Pure cultures of bacteria were grown anaerobically in YCFA broth until they reached their stationary growth phase. Cultures were centrifuged at 5,000×g for 5 minutes and the cell-free supernatant (CFS) was filtered using a 0.2 μM filter (Millipore, UK). 1 mL aliquots of the CFS were stored at −80° C. until use. Sodium butyrate, hexanoic and valeric acid were obtained from Sigma Aldrich (UK) and suspensions were prepared in YCFA broth.
To investigate which metabolites were responsible for the strain-induced HDAC inhibition, different concentrations of hexanoic acid, valeric acid and sodium butyrate were measured for their HDAC inhibition on whole HT-29 cells and on HT-29 cell lysate.

O=c1c(O)c(-c2ccc(O)c(O)c2)oc2cc(O)cc(O)c12 [quercetin, reference compound]
protection compared to YCFA-MPP+ treated sample [1]: about the same

Parabacteroides distasonis [MRx0005]
interleukin-6 in splenocytes (mouse Splenocytes; challenge with LPS): reduced | levels of interferon-γ in splenocytes (mouse Splenocytes; challenge with LPS): significantly reduced | tumour necrosis factor in splenocytes (mouse Splenocytes; challenge with LPS): reduced | levels of the chemoattractant CXCL1 (mouse Splenocytes; splenocytes): increase | secretion of IL-8 [2]: even lower secretion | gene expression of tight junction proteins [3]: did not alter | proliferation of neurons ([1]; 10% bacterial supernatant, without MPP): increase | protection compared to YCFA-MPP+ treated sample [1]: about 20% | mitochondria metabolic activity ([1]; RA-differentiated SHSY-5Y cells, per se (no MPP+)): increase | dopamine in brain (BALBc mice [4]): decrease | expression of BDNF (BALBc mice [5]; amygdala): significantly increased | expression of CD11b (BALBc mice [5]; amygdala): increase | expression of GABBR1 (BALBc mice [5]; amygdala): increased | expression of GABRA2 (BALBc mice [5]; amygdala): significantly increased | expression of Grin2a (BALBc mice [5]; amygdala): reduced | expression of Grin2b (BALBc mice [5]; amygdala): reduced | expression of IL-6 (BALBc mice [5]; amygdala): reduced | expression of BDNF (BALBc mice [5]; prefrontal cortex): significant increase | IDO-1 expression (BALBc mice [6]; colon): increase | expression of IDO1 (BALBc mice [6]; ileum): increased | expression of Tph1 (BALBc mice [6]; ileum): increased

CCCC(CCC)C(=O)O [valproic acid, reference compound]
neurite outgrowth / neuron-like phenotype (SHSY5Y): increases neurite outgrowth | MAP2 expression (SHSY5Y; undifferentiated neuroblastoma cells, qPCR, GAPDH internal control): increase

CCCCCC(=O)O [hexanoic acid]
neurite outgrowth / neuron-like phenotype (SHSY5Y): enhance neurite outgrowth | total HDAC activity, pure substances (HDAC): did not show significant inhibitory activity

CCCC(=O)[O-].[Na+] [sodium butyrate, reference compound]
total HDAC activity, pure substances (HDAC): significant HDAC inhibition | HDAC inhibition, HT29 cell lysate (HDAC; HT-29 cell lysate): significant (P<0.05) inhibition | HDAC inhibition, HT29 whole cell (HDAC; whole HT-29 cells): significant (P<0.05) inhibition

Reference: patent US11660319B2, “Compositions comprising bacterial strains” (priority 2017, dated 2023)
